The values that follow come from US8596557B2, “Pest control aerosol sprayer” (Fumakilla Limited, priority 2008, dated 2013).

The structures appear in SMILES notation.

Data set [1] can be described thus: Back-fire test on content of HFC-152a / HFO-1234ze mixed with LPG or dimethyl ether (Test Example 2). The note with it: varied mixture ratio, sprayed 5 seconds towards burner flame. As for the experimental part: (§1) In Test Example 2, aerosol sprayers using HFC-152a as an alternative for chlorofluorocarbon were tested on its content. This, too, relates to back-fire tests. Specifically, aerosol sprayers loaded with HFC-152a alone and mixtures of HFC-15a with LPG or dimethyl ether (in varied mixture ratio) were prepared. And, after these aerosol sprayers were immersed in a thermostatic bath at 25° C. for 1 hour, each of them was arranged with the flame, as a fire origin, of an ignited burner so that the spray nozzle of its head cap and the flame lied horizontally in the same height. And, each gas was sprayed from the spray nozzle of the head cap in the aerosol sprayer for 5 seconds towards the flame as the fire origin to check if there was a backfire. This was repeated a plurality of times. Here, the fire origin was spaced from the spray nozzle at a distance of 15 cm.
Further, HFO-1234ze as another alternative for chlorofluorocarbon was also tested on its content as in Text Example 2 above. Specifically, aerosol sprayers loaded with HFO-1234ze alone and mixtures of HFO-1234ze with LPG or dimethyl ether (in varied mixture ratio) were prepared. […]

Data set [2] in a line: Back-fire test of aerosol sprayers loaded with various gases (Test Example 1). The note with it: sprayed 5 seconds towards burner flame, sprayer at 25° C. As for the experimental part: as §1, with “Test” for “In Test”, “1” for “2, aerosol sprayers using HFC-152a as an alternative for chlorofluorocarbon were tested on its content. This, too,”, “tests for the aerosol sprayer using various gases.” for “tests.”, “various gases acting as both propellant” for “HFC-152a alone”, “refrigerant” for “mixtures of HFC-15a with LPG or dimethyl ether (in varied mixture ratio)”, “15 cm and at a distance of 60” for “15”
Further, HFO-1234ze as another alternative for chlorofluorocarbon was also subjected to the same backfire tests as for HFC-152a and HFC-134a in Text Example 1 mentioned above.

Data set [3] is described as follows: Mode of spraying: average particle size and minimum temperature of target area (Test Example 3). It is filed as physicochemical. As for the experimental part:
(§2) In Test Example 3, modes of spraying from the spray nozzle 10 in the head cap 2 were examined. This is to examine the refrigerating and behavioral inhibiting effects on a noxious insect by a noxious insect behavioral inhibitor A which is sprayed from the spray nozzle 10. Specifically, a wooden flooring was prepared on which a glass ring (having a diameter of 9 cm and a height of 6 cm) was placed. […] And, one female adult of Periplaneta fuliginosa is introduced inside of the glass ring. On the other hand, two different head caps were prepared, one provided with a single spray nozzle 10 and the other provided with a pressure reducer means comprising an upper and a lower spray nozzle 10a and 10b. And, using them, the noxious insect behavioral inhibitor A is sprayed for 3 seconds toward the Periplaneta fuliginosa from a distance of 50 cm therefrom, and the state of the Periplaneta fuliginosa thereafter (possible knockdown after 2 minutes and after 1 hour and fatality after 24 hours) is observed. Further, the minimum temperatures of a target area of spraying are measured. And, the room temperature is 25° C., and the noxious insect behavioral inhibitor A is HFC-152a alone (100%). The two head caps 2, the one with the single spray nozzle 10 and the other with the two spray nozzles 10, are made to spray substantially at a identical rate of spraying.
(§3) Also, in Test Example 3, noxious insect behavioral inhibitors containing HFO-1234ze alone (100%), at a content of 75% and at a content of 50% were examined. What is mixed is dimethyl ether.

The test system of another data set is Periplaneta fuliginosa. Description: Biological test: knockdown and fatality after 3 second spray from 50 cm (Test Example 3). It is filed as in vivo. The following applies: female adult. As for the experimental part:
as §2, §3

[4] abbreviates: two spray nozzles (upper 1.5 mm, lower 1.8 mm).
[5] abbreviates: two spray nozzles (upper 1.5 mm, lower 1.8 mm), n = 10.
[6] abbreviates: single spray nozzle (1.5 mm diameter), n = 10.

Turning to `FC=CC(F)(F)F` [HFO-1234ze (100%), 1,3,3,3-tetrafluoropropene], the “Backfire, 15 cm distant from Fire Origin (content test)” value in data set [1] is recorded as “Not Back-fired”. In addition, in data set [2], the “Backfire, 15 cm distant from Fire Origin” value is reported as “Not Backfired” and the “Backfire, 60 cm distant from Fire Origin” value was “Not Backfired”. Moreover, the Average particle size in data set [3] (setting [4]) is 120 μm. Besides, in the data set on Periplaneta fuliginosa (setting [5]), the “Fatality after 24 hours” value is 60%, the “Knockdown rate after 2 minutes” value is 100% and the “Knockdown rate after 1 hour” value was found to be 100%.
For the compound `COC` [dimethyl ether (100%), dimethyl ether, reference compound], in data set [2], the “Backfire, 15 cm distant from Fire Origin” value was “Backfired” and the “Backfire, 60 cm distant from Fire Origin” value is on record as “Backfired”.
In the case of `CC(F)F` [HFC-152a (100%), 1,1-difluoroethane], the “Backfire, 15 cm distant from Fire Origin (content test)” value in data set [1] is recorded as “Not Back-fired”. In addition, in data set [2], the “Backfire, 15 cm distant from Fire Origin” value was “Not Backfired”. In addition, the “Backfire, 60 cm distant from Fire Origin” value in data set [2] is recorded as “Not Backfired”. The Average particle size was found to be 57 μm in data set [3] (single spray nozzle (1.5 mm diameter)) and 97 μm in data set [3] (setting [4]). Further, the “Fatality after 24 hours” value is listed as 10% in the data set on Periplaneta fuliginosa (setting [6]) and 100% in the data set on Periplaneta fuliginosa (setting [5]). For the same compound, the “Knockdown rate after 1 hour” value is 40% in the data set with Periplaneta fuliginosa (setting [6]) and 100% with Periplaneta fuliginosa (setting [5]). For the same compound, the “Knockdown rate after 2 minutes” value in the data set on Periplaneta fuliginosa (single spray nozzle (1.5 mm diameter), n = 10, room temperature 25° C.) stood at 90%; in the data set on Periplaneta fuliginosa (setting [5]), 100%.
As to `FCC(F)(F)F` [HFC-134a (100%)], in data set [2], the “Backfire, 15 cm distant from Fire Origin” value is listed as “Not Backfired” and the “Backfire, 60 cm distant from Fire Origin” value was “Not Backfired”.
